Measured values reported in article PMC6099623, “Novel Thiazolidinone/Thiazolo[3,2-a]Benzimidazolone-Isatin Conjugates as Apoptotic Anti-proliferative Agents Towards Breast Cancer: One-Pot Synthesis and In Vitro Biological Evaluation” (Molecules : A Journal of Synthetic Chemistry and Natural …, 2018).

Columns and labels:
[1] = system: MDA-MB-231 breast cancer cell line; assay: Crystal Violet antiproliferative assay, MDA-MB-231; format: cell-based; conditions: 48 h of incubation, mean ± S.D. of three separate experiments
Protocol: (§1) The in vitro antiproliferative activity of the newly synthesized conjugates 4a–n and 7a–d was evaluated against breast cancer MDA-MB-231 and MCF-7 cell lines, following the Crystal Violet (CV) cell cytotoxicity assay. Doxorubicin was included in this assay as a positive control, and Sunitinib was used as a reference drug.
(§2) Breast cancer cell lines MDA-MB-231 and MCF-7 cells were obtained from VACSERA Tissue Culture Unit. The cells were propagated in DMEM supplemented with 10% heat-inactivated fetal bovine serum, 1% L-glutamine (2.5 mM), HEPES (4-(2-hydroxyethyl)-1-piperazineethanesulfonic acid) buffer (10 mM) and 50 µg/mL gentamycin. All cells were maintained at 37 °C in a humidified atmosphere with 5% CO2 and were sub-cultured two times a week. Cytotoxicity was determined following the Crystal Violet (CV) cell cytotoxicity assay.
(§3) Test samples were dissolved in DMSO and kept at a stock concentration of 100 mM. Exponentially growing cells were collected using 0.25% Trypsin-EDTA and seeding was done at a density of 3000 cells/well in 96-well plates. After 24 h, the monolayer cultured cells were washed with sterile phosphate buffered saline (0.01 M pH 7.2) and simultaneously the cells were treated with […] from 10 different dilutions of the test compounds as well as Doxorubicin was […] Control wells were exposed to the same concentration of vehicle, DMSO (1%) used in the highest concentration of the test samples. Cell viability was >99% compared to untreated cells. The number of the surviving cells was determined by staining the cells with crystal violet followed by cell lysing using 33% glacial acetic acid. The absorbance was measured at 490 nm using ELISA reader (Thermo Fisher Scientific, Waltham, MA, USA) after gentle shaking. The absorbance values from untreated cells were considered as 100% proliferation.
(§4) The number of viable cells was determined using ELISA reader as previously mentioned and the percentage of viability was calculated as […] where ODt is the mean optical density of wells treated with the test sample and ODc is the mean optical density of untreated cells. The 50% inhibitory concentration (IC50) was estimated from graphic plots of the dose response curve for each conc. using GraphPad Prism software, Version 5 (San Diego, CA, USA). The data presented are the mean of at least three separate experiments.

[2] = system: MCF-7 breast cancer cell line; assay: Crystal Violet antiproliferative assay, MCF-7; format: cell-based; conditions: Homo sapiens, MCF7, 48 h, Crystal Violet assay; 48 h of incubation; mean ± S.D. of three separate experiments
Protocol: as §1, §2, §3, §4

[3] = system: lung fibroblast cell line (WI-38); assay: Crystal violet cytotoxicity towards nontumorigenic WI-38; format: cell-based; conditions: Homo sapiens, nontumorigenic cells, mean ± S.D. of three separate experiments
Protocol: (§5) The cytotoxic activity of the active conjugates towards MDA-MB-231 cells (4c–e, 4g, 4l–n and 7a–d) was examined against nontumorigenic human lung fibroblast cell line (WI-38) and human breast epithelial cell line (MCF-10A) to investigate the potential safety of the newly prepared conjugates towards the normal cells. […] The results were expressed as IC50 values, and selectivity index was calculated (Table 2).
(§6) The cytotoxic activity of the active conjugates towards nontumorigenic human lung fibroblast cell line (WI-38) and human breast epithelial cell line (MCF-10A) was determined using Crystal violet (CV) cell cytotoxicity assay according to the previously published procedures.

[4] = system: breast epithelial cell line (MCF-10A); assay: Crystal violet cytotoxicity towards nontumorigenic MCF-10A; format: cell-based, human; conditions: for IC50: Homo sapiens, MCF-10A, nontumorigenic cells, mean ± S.D. of three separate experiments; for Selectivity Index (MCF-10A/MDA-MB-231): ratio of IC50 MCF-10A to IC50 MDA-MB-231
Protocol: as §5, §6

Compound | IC50 ([1]; Homo sapiens, MDA-MB-231, 48 h) [µM] | IC50 [2] [µM] | melting point [°C] | IC50 [3] [µM] | IC50 [4] [µM] | Selectivity Index (MCF-10A/MDA-MB-231) [4] | IC50 [1] [µM]
O=C1Nc2ccccc2C1=C1SC(=Nc2ccccc2)N(c2ccccc2)C1=O [Compound 4a, 5-(2-Oxoindolin-3-ylidene)-3-phenyl-2-(phenylimino)thiazolidin-4-one] | > 200 | > 200 | – | – | – | – | –
O=C1Nc2ccc(F)cc2C1=C1SC(=Nc2ccccc2)N(c2ccccc2)C1=O [Compound 4b, 5-(5-Fluoro-2-oxoindolin-3-ylidene)-3-phenyl-2-(phenylimino)thiazolidin-4-one] | 108 ± 8.2 | 58.5 ± 3.2 | > 300 | – | – | – | –
O=C1Nc2ccc(Cl)cc2C1=C1SC(=Nc2ccccc2)N(c2ccccc2)C1=O [Compound 4c, 5-(5-Chloro-2-oxoindolin-3-ylidene)-3-phenyl-2-(phenylimino)thiazolidin-4-one] | 24.1 ± 2.1 | 29.2 ± 2.5 | – | 87.2 ± 5.2 | 113 ± 5.9 | 4.7 | –
O=C1Nc2ccc(Br)cc2C1=C1SC(=Nc2ccccc2)N(c2ccccc2)C1=O [Compound 4d, 5-(5-Bromo-2-oxoindolin-3-ylidene)-3-phenyl-2-(phenylimino)thiazolidin-4-one] | 15.7 ± 0.9 | 17.1 ± 1.1 | – | 65.5 ± 4.2 | 80.7 ± 3.4 | 5.1 | –
COc1ccc2c(c1)C(=C1SC(=Nc3ccccc3)N(c3ccccc3)C1=O)C(=O)N2 [Compound 4e, 5-(5-Methoxy-2-oxoindolin-3-ylidene)-3-phenyl-2-(phenylimino)thiazolidin-4-one] | 42.6 ± 3.4 | 52.9 ± 5 | – | 193 ± 10.6 | 89.6 ± 5.1 | 2.1 | –
Cc1ccc2c(c1)C(=C1SC(=Nc3ccccc3)N(c3ccccc3)C1=O)C(=O)N2 [Compound 4f, 5-(5-Methyl-2-oxoindolin-3-ylidene)-3-phenyl-2-(phenylimino)thiazolidin-4-one] | 60.9 ± 4.2 | 22.8 ± 2 | – | – | – | – | –
Cc1cc(C)c2c(c1)C(=C1SC(=Nc3ccccc3)N(c3ccccc3)C1=O)C(=O)N2 [Compound 4g, 5-(5,7-Dimethyl-2-oxoindolin-3-ylidene)-3-phenyl-2-(phenylimino)thiazolidin-4-one] | 43.6 ± 3.1 | – | > 300 | 120 ± 7.8 | 142 ± 7.9 | 3.25 | –
Cc1ccc(N=C2SC(=C3C(=O)Nc4ccccc43)C(=O)N2c2ccc(C)cc2)cc1 [Compound 4h, 5-(2-Oxoindolin-3-ylidene)-3-(p-tolyl)-2-(p-tolylimino)thiazolidin-4-one] | 51.7 ± 2.1 | 56 ± 3.7 | > 300 | – | – | – | –
Cc1ccc(N=C2SC(=C3C(=O)Nc4ccc(F)cc43)C(=O)N2c2ccc(C)cc2)cc1 [Compound 4i, 5-(5-Fluoro-2-oxoindolin-3-ylidene)-3-(p-tolyl)-2-(p-tolylimino)thiazolidin-4-one] | 152 ± 11.5 | 105 ± 7.5 | > 300 | – | – | – | –
Cc1ccc(N=C2SC(=C3C(=O)Nc4ccc(Cl)cc43)C(=O)N2c2ccc(C)cc2)cc1 [Compound 4j, 5-(5-Chloro-2-oxoindolin-3-ylidene)-3-(p-tolyl)-2-(p-tolylimino)thiazolidin-4-one] | 50.8 ± 3.5 | > 200 | > 300 | – | – | – | –
Cc1ccc(N=C2SC(=C3C(=O)Nc4ccc(Br)cc43)C(=O)N2c2ccc(C)cc2)cc1 [Compound 4k, 5-(5-Bromo-2-oxoindolin-3-ylidene)-3-(p-tolyl)-2-(p-tolylimino)thiazolidin-4-one] | > 200 | > 200 | > 300 | – | – | – | –
COc1ccc2c(c1)C(=C1SC(=Nc3ccc(C)cc3)N(c3ccc(C)cc3)C1=O)C(=O)N2 [Compound 4l, 5-(5-Methoxy-2-oxoindolin-3-ylidene)-3-(p-tolyl)-2-(p-tolylimino)thiazolidin-4-one] | 47.1 ± 4.1 | 53.5 ± 3.6 | > 300 | 176 ± 11.3 | 157 ± 6.8 | 3.3 | 47.2 ± 4.1
Cc1ccc(N=C2SC(=C3C(=O)Nc4c(C)cc(C)cc43)C(=O)N2c2ccc(C)cc2)cc1 [Compound 4n, 5-(5,7-Dimethyl-2-oxoindolin-3-ylidene)-3-(p-tolyl)-2-(p-tolylimino)thiazolidin-4-one] | 36.3 ± 2.9 | 23.7 ± 1.9 | > 300 | 218 ± 13.5 | 154 ± 5.2 | 4.2 | –
O=C1Nc2ccc(Cl)cc2C1=c1sc2nc3ccccc3n2c1=O [Compound 7a, 2-(5-Chloro-2-oxoindolin-3-ylidene)benzo[4,5]imidazo[2,1-b]thiazol-3(2H)-one] | 47.2 ± 3.8 | 127 ± 9.9 | > 300 | 353 ± 17.1 | 234 ± 9.6 | 5.0 | –
Cc1ccc2c(c1)C(=c1sc3nc4ccccc4n3c1=O)C(=O)N2 [Compound 7c, 2-(5-Methyl-2-oxoindolin-3-ylidene)benzo[4,5]imidazo[2,1-b]thiazol-3(2H)-one] | 40.3 ± 2.5 | 48.2 ± 2.7 | > 300 | 192 ± 10.8 | 242 ± 11.5 | 6.0 | –
Cc1cc(C)c2c(c1)C(=c1sc3nc4ccccc4n3c1=O)C(=O)N2 [Compound 7d, 2-(5,7-Dimethyl-2-oxoindolin-3-ylidene)benzo[4,5]imidazo[2,1-b]thiazol-3(2H)-one] | 23.5 ± 1 | 27.6 ± 2.4 | > 300 | 234 ± 15.4 | 250 ± 9.8 | 10.7 | –
COc1cccc2c1C(=O)c1c(O)c3c(c(O)c1C2=O)C[C@@](O)(C(=O)CO)C[C@@H]3O[C@H]1C[C@H](N)[C@H](O)[C@H](C)O1 [Dox., Doxorubicin, reference compound] | 4.7 ± 0.4 | 3.8 ± 0.4 | – | – | – | – | –
CCN(CC)CCNC(=O)c1c(C)[nH]c(/C=C2\C(=O)Nc3ccc(F)cc32)c1C [Sunitinib, reference compound] | 5.5 ± 0.5 | 3.4 ± 0.3 | – | – | – | – | –
